Data reported in US20180099931A1 (AbbVie S.à.r.l., priority 2016, published 2018).
Where two headings read alike, the source gives them in different places.

Target: T1, F508delCFTR (Homo sapiens, UniProt P13569, DEL508-508)
T1 construct: expressed in transfected cells; host or cells: CFBE41o- human lung-derived epithelial cells (CFBE4lo-F508delCFTR-HRP), doxycycline-inducible
Experiment: Cell Surface Expression-Horse Radish Peroxidase (CSE-HRP) Assay;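 on Maximum % activity (with co-corrector): co-corrector and positive control are both the same reference corrector at 2 µM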;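 on Maximum % activity (without co-corrector): percent of the 2 µM on-plate positive control corrector response above DMSO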
Type: cell-based
Conditions: CSE-HRP; for Maximum % activity (with co-corrector): with co-corrector (2 μM); for Maximum % activity (with co-corrector) / Emax: maximum at any tested concentration, normalized to on-plate positive control; for Emax: without co-corrector, read-out: Maximum % activity (without co-corrector)

[1] = test compound without co-corrector, read-out: EC50 (without co-corrector)
[2] = with co-corrector (2 μM of 3-[(2R,4R)-4-({[1-(2,2-difluoro-1,3-benzodioxol-5-yl)cyclopropyl]carbonyl}amino)-7-methoxy-3,4-dihydro-2H-chromen-2-yl]benzoic acid), read-out: EC50 (with co-corrector)

T1 sequence (P13569 with tags, fused parts or gaps DEL508-508): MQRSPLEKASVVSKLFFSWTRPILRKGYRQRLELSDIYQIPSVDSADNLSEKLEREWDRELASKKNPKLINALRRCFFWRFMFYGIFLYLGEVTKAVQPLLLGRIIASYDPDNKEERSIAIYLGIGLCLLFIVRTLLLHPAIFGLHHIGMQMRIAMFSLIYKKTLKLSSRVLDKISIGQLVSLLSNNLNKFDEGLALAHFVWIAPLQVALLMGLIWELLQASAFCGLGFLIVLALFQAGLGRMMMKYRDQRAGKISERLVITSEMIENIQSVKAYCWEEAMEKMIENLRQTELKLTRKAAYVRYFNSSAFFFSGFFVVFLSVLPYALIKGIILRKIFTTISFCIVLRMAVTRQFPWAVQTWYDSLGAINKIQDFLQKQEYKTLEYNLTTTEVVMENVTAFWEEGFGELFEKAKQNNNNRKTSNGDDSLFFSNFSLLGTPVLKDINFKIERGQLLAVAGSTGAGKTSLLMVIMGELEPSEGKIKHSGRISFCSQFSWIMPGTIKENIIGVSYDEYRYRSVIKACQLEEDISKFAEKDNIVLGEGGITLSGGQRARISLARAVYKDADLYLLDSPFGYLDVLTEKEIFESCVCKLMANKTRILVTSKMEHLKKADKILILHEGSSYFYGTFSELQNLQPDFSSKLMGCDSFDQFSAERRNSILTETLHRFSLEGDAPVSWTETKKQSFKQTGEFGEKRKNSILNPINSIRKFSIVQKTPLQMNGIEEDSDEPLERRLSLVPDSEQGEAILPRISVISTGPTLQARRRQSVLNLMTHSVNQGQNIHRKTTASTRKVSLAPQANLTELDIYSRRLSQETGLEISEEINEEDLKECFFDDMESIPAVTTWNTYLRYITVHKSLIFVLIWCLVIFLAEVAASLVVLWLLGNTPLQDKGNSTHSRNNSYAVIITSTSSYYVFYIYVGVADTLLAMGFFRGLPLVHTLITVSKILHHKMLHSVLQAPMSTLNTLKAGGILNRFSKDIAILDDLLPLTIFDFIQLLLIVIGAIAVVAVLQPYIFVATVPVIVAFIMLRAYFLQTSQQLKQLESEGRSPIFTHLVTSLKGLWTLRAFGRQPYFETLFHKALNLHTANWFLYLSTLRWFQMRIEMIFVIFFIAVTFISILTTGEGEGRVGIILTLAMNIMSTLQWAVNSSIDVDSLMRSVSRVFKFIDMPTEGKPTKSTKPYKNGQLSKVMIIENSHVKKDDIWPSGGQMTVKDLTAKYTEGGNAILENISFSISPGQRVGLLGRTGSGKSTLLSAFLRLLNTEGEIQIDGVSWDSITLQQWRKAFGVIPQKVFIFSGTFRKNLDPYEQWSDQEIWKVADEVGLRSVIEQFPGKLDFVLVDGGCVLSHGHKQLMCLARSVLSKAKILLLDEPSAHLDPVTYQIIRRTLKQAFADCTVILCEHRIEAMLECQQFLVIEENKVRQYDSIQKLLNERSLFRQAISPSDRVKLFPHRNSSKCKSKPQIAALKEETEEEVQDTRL

Row | Compound | EC50 [1] [µM] | EC50 [2] [µM] | Maximum % activity (with co-corrector) | Emax [%]
1 | COc1ccc(C2CCCCC2)cc1CN[C@H]1[C@H](C(C)(C)OC)[C@@H](C(=O)O)N(C(=O)C2CCCCC2)[C@H]1c1ccccc1 [II-257] | < 1 | < 1 | +++ (≥350) | > 200
2 | COc1ccc(C(C)C)cc1CN[C@H]1[C@H](C(C)(C)OC)[C@@H](C(=O)O)N(C(=O)C2CCCCC2)[C@H]1c1ccccc1 [II-258] | 1 to 10 | < 1 | +++ (≥350) | > 200
3 | COc1ncc(C2CC2)cc1CN[C@H]1[C@H](C(C)(C)C)[C@@H](C(=O)O)N(C(=O)C2CCCCC2)[C@H]1c1ccccc1 [II-259] | 1 to 10 | 1 to 10 | +++ (≥350) | 100 to 200
4 | COc1ccc(C(F)(F)F)cc1CN[C@H]1[C@H](C(C)(C)C)[C@@H](C(=O)O)N(C(=O)C2CCCCC2)[C@H]1c1ccccc1F [II-260] | 1 to 10 | 1 to 10 | +++ (≥350) | 100 to 200
5 | COc1cc(C(F)(F)F)ccc1CN[C@H]1[C@H](C(C)(C)C)[C@@H](C(=O)O)N(C(=O)C2CCCCC2)[C@H]1c1ccccc1F [II-261] | 1 to 10 | 1 to 10 | +++ (≥350) | < 100
6 | COc1ccc(Br)cc1CN[C@H]1[C@H](C(C)(C)C)[C@@H](C(=O)O)N(C(=O)C2CCCCC2)[C@H]1c1ccccc1F [II-262] | 1 to 10 | 1 to 10 | +++ (≥350) | 100 to 200
7 | COc1ncc(Br)cc1CN[C@H]1[C@H](C(C)(C)C)[C@@H](C(=O)O)N(C(=O)C2CCCCC2)[C@H]1c1ccccc1F [II-263] | 1 to 10 | 1 to 10 | +++ (≥350) | < 100
8 | COc1ccc(C(C)(C)C)cc1CN[C@H]1[C@H](C(C)(C)C)[C@@H](C(=O)O)N(C(=O)OCC(C)C)[C@H]1c1ccccc1 [II-264] | 1 to 10 | 1 to 10 | +++ (≥350) | > 200
9 | COc1ccc(C(C)(C)C)cc1CN[C@H]1[C@H](C(C)(C)C)[C@@H](C(=O)O)N(C(=O)C(OC)C(C)C)[C@H]1c1ccccc1 (stereo partly drawn) [II-267] | 1 to 10 | 1 to 10 | +++ (≥350) | > 200
10 | COc1ccc(C(F)(F)F)cc1CN[C@H]1[C@H](C(C)(C)C)[C@@H](C(=O)O)N(C(=O)C(OC)C(C)C)[C@H]1c1ccccc1 (stereo partly drawn) [II-273] | 1 to 10 | 1 to 10 | +++ (≥350) | > 200
11 | COc1ccc(-c2cccs2)cc1CN[C@H]1[C@H](C(C)(C)C)[C@@H](C(=O)O)N(C(=O)C2CCCCC2)[C@H]1c1ccccc1 [II-275] | < 1 | < 1 | +++ (≥350) | > 200
12 | COc1ccc(-c2ccoc2)cc1CN[C@H]1[C@H](C(C)(C)C)[C@@H](C(=O)O)N(C(=O)C2CCCCC2)[C@H]1c1ccccc1 [II-276] | 1 to 10 | < 1 | +++ (≥350) | > 200
13 | COc1cccc(-c2ccc(OC)c(CN[C@H]3[C@H](C(C)(C)C)[C@@H](C(=O)O)N(C(=O)C4CCCCC4)[C@H]3c3ccccc3)c2)c1 [II-277] | 1 to 10 | < 1 | +++ (≥350) | > 200
14 | COc1ccc(-c2ccc(C)nc2)cc1CN[C@H]1[C@H](C(C)(C)C)[C@@H](C(=O)O)N(C(=O)C2CCCCC2)[C@H]1c1ccccc1 [II-278] | 1 to 10 | 1 to 10 | +++ (≥350) | 100 to 200
15 | COc1ccc(-c2ccccc2C)cc1CN[C@H]1[C@H](C(C)(C)C)[C@@H](C(=O)O)N(C(=O)C2CCCCC2)[C@H]1c1ccccc1 [II-279] | < 1 | < 1 | +++ (≥350) | > 200
16 | COc1ccc(-c2cnccc2C)cc1CN[C@H]1[C@H](C(C)(C)C)[C@@H](C(=O)O)N(C(=O)C2CCCCC2)[C@H]1c1ccccc1 [II-280] | 1 to 10 | 1 to 10 | +++ (≥350) | < 100
17 | COc1ccc(-c2cccc(C#N)c2)cc1CN[C@H]1[C@H](C(C)(C)C)[C@@H](C(=O)O)N(C(=O)C2CCCCC2)[C@H]1c1ccccc1 [II-281] | 1 to 10 | 1 to 10 | +++ (≥350) | 100 to 200
18 | COc1ccc(-c2ccc(F)cc2C)cc1CN[C@H]1[C@H](C(C)(C)C)[C@@H](C(=O)O)N(C(=O)C2CCCCC2)[C@H]1c1ccccc1 [II-282] | < 1 | < 1 | +++ (≥350) | > 200
